SMILES strings stand for the structures.

Our source for the Ki values is ChEMBL document CHEMBL1141229, “On the use of nonfluorescent dye labeled ligands in FRET-based receptor binding studies” (J Med Chem, 2005).

This experiment deals with Muscarinic acetylcholine receptor M1 (Homo sapiens, UniProt P11229). As to the kind of experiment: Displacement of [3H]QNB from EGFP(delta-17)human M1 receptor expressed in HEK cells. It counts as cell-based. Conditions: hek293. Background: Loss of bound radioactivity is the signal in a displacement assay; it reports binding, not function.
Chain of Muscarinic acetylcholine receptor M1 (P11229 whole entry, looked up): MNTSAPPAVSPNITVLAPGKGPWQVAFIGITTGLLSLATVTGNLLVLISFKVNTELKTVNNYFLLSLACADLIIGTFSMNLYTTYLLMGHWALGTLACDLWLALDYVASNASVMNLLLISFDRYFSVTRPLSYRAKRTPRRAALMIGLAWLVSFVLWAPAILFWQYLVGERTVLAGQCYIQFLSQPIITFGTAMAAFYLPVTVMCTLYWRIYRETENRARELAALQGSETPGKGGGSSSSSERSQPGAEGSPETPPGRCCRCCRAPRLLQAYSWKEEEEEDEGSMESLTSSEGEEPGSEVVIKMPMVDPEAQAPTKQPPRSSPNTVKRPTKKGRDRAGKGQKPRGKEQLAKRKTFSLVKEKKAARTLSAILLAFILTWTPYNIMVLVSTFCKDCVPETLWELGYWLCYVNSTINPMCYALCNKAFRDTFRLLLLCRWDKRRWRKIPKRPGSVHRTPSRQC
Turning to `CCN1/C(=C/C=C/c2ccc3cc(NC(=O)CCCCC(=O)O)ccc3[n+]2CC)C=Cc2ccccc21`, the Ki (in general, the dissociation constant of the complex between target and ligand, obtained from inhibition or displacement) is above 10000 nM.
Take `CCN(CC)c1ccc([C+](c2ccc(N(CC)CC)cc2)c2ccc(S(=O)(=O)NCCCCCC(=O)NCCOCCOCCN3CCN(CC(=O)N4c5ccccc5C(=O)Nc5cccnc54)CC3)cc2S(=O)(=O)[O-])cc1`: the affinity corresponds to a Ki of 189 nM.
Then `O=C(CCCCCNC(=O)CCc1ccc2n1[B-](F)(F)[N+]1=C(c3cccs3)C=CC1=C2)NCCCCN1CCN(CC(=O)N2c3ccccc3C(=O)Nc3cccnc32)CC1`, with 69.7 nM.
In the case of `CCN1/C(=C/C=C/c2ccc3cc(NC(=O)CCCCC(=O)NCCOCCOCCN4CCN(CC(=O)N5c6ccccc6C(=O)Nc6cccnc65)CC4)ccc3[n+]2CC)C=Cc2ccccc21`, the affinity corresponds to a Ki of 29.4 nM.
In turn, `CCN(CC)c1ccc2c(-c3ccc(S(=O)(=O)NCCCCCC(=O)NCCOCCOCCN4CCN(CC(=O)N5c6ccccc6C(=O)Nc6cccnc65)CC4)cc3S(=O)(=O)[O-])c3ccc(=[N+](CC)CC)cc-3oc2c1` registered an inhibition constant Ki of 53.5 nM. Compared with the last compound, the Ki is about 1.8-fold higher.
On to `CCN(CC)c1ccc([C+](c2ccc(N(CC)CC)cc2)c2ccc(S(=O)(=O)NCCCCCC(=O)O)cc2S(=O)(=O)[O-])cc1`, for which the Ki was above 10000 nM.
